Patent US6177592A, “Compounds” (priority 1997, dated 2001)

Assays:
tumor necrosis factor-α = assay: TNF-α in serum of LPS endotoxin-shock mice; format: in vivo, mouse (CDF1); settings: for TNF in serum (Mean ± SE): n=5, control 2.32 ± 0.15
Description: (1) LPS (lipopolysaccharide manufactured by Sigma) was intraperitoneally injected (10 μg/mouse) to female CDF1 mice of eight weeks age (purchased from Nippon SLC at seven weeks age with bodyweight of 20 g followed by subjecting a preliminary breeding for one week at our end) and endotoxin-shock models were prepared. GM was orally administered at the dose of 100 and 1000 mg/kg at thirty minutes before administration of LPS. After one hour from the administration of LPS, blood was collected from the mice, serum was separated and amount of the tumor necrosis factor-α in the serum was measured by a commercially available ELISA kit (manufactured by Endogen).

tumor necrosis factor = assay: TNF production from LPS-induced celiac macrophage; format: cell-based, mouse (CDF1)
Description: (2) Paraffin oil (Cosmo Bio) (2 ml) was intraperitoneally administered to female CDF1 mice of eight weeks age to induce celiac macrophage (M.phi.). After one week from administration of paraffin oil, 4 ml of an RPMI-1640 medium (Gibco) was intraperitoneally infused, well massaged and recovered to give celiac cells.
The celiac cells were washed with an RPMI-1640 medium twice and suspended in an PPMI1640 medium containing 10% of fetal calf serum (FCS; High-Clone) to adjust the cell concentration to 1×10^6 cells/ml. The cell solution (1 ml) prepared as such was planted on a 24-well plate and incubated in a CO2 incubator at 37° C. for two hours. Non-adhesion cells contained in the supernatant liquid after incubation was removed and the adhesion cells were used as celiac M . […]
After the incubation, 100 μl of 100 ng/ml LPS (manufactured by Sigma) was added and incubation was conducted for 24 hours more. After completion of the incubation, the supernatant liquid was recovered therefrom and the amount of TNF-a produced therein was determined using a commercially available ELISA kit (manufactured by Endogen).

[1] = system: DSEK cell (fibroblast strain from synovial membrane); assay: Growth of DSEK synovial fibroblasts (WST-1) and apoptosis; format: cell-based, human (patient suffering from chronic articular rheumatism)
Description: DSEK cell (cell strain stored at the Department of Second Internal Medicine, Integrated Medical Center, Saitama College of Medicine) which was a fibroblast strain established from synovial membrane of a patient suffering from chronic articular rheumatism was incubated in an Iscob-modified Dulbecco medium (IMDM, manufactured by Gibco, 12440-053) containing 10% fetal bovine serum (FBS, manufactured by Gibco, 26140-079) at 37° C. in the presence of 5% carbon dioxide gas until confluent and then the cells were collected by peeling off with trypsin-EDTA (manufactured by Gicbo, 25300-054). The cells were suspended in the above-mentioned medium until 25,000 cells/ml were resulted and each 100 μl was placed in each well of a 96-well microtiter plate. After five days from incubation when the state of confluence was almost achieved, the medium was discarded and then the above-mentioned medium containing 2.5, 5, 10, 20 or 30 μM of GM was added. After incubating for 24, 48 or 72 hours, 10 μl of a premix WST-1 (manufactured by Takara Shuzo, MK400) was added thereto followed by subjecting to a reaction at 37° C. for four hours. The value obtained by deducting the absorbance at 650 nm (A650) from that at 450 nm (A450) was defined as a degree of growth of cell.

[2] = system: carrageenan-induced pedal edema; assay: Carrageenan-induced pedal edema in Lewis rats; format: in vivo; settings: Rattus norvegicus, 3 h; oral; three hours after carrageenan; read-out: dose with significant inhibition of pedal edema
Description: Carrageenan-induced pedal edema models which were animal model of chronic articular rheumatism were prepared as follows using male Lewis rats [purchased from Seac-Yoshitomi when five weeks age (body weight: about 130 g) followed by subjecting to a preliminary breeding for one week at our end] and the test drugs were evaluated.
To the rats which were fasted since 18 hours before initiation of the experiment was orally administered with 10 ml/kg of GM which was prepared with distilled water (manufactured by Otsuka Pharmaceutical) to make 10 and 100 mg/ml.
After 0.5 hour from administration of the test drug, 100 μl/rat of 1% suspension of carrageenan (manufactured by Wako) in a physiologically saline solution (manufactured by Otsuka Pharmaceutical) was injected to right paw to induce pedal edema. After three hours from the carrageenan injection, volume of right paw of the rat was measured by a pedal volume measuring device (manufactured by UGO BASILE). Incidentally, the measured value was expressed by calculating the increasing rate from the right paw volume of each rat measured before the carrageenan administration.

N[C@@H](CCC(=O)N[C@@H](CSC1C=C(O)C(=O)C1)C(=O)NCC(=O)O)C(=O)O (stereo partly shown) [GM, 2-hydroxy-4-glutathion-S-yl-2-cyclopenten-1-one]
TNF in serum (Mean ± SE) (tumor necrosis factor-α; 100 mg/kg oral): 2.22 ± 0.26 ng/mL | inhibition of production of tumor necrosis factor (in words) (tumor necrosis factor-α; 1000 mg/kg oral): significantly inhibited | TNF in serum (Mean ± SE) (tumor necrosis factor-α; 1000 mg/kg oral): 1.16 ± 0.26 ng/mL | inhibition activity of TNF production (in words) (tumor necrosis factor; Example 8): inhibition activity of the production of tumor necrosis factor | minimal effective concentration (tumor necrosis factor; Mus musculus, Macrophage, read-out: concentration which significantly inhibited TNF production, LPS-induced, 24 hours): ≥ 10 µM | degree of growth of cell (A450 - A650) ([1]; 2.5 μM, 24 hours, 0 μM 0.846): 0.768 | degree of growth of cell (A450 - A650) ([1]; 2.5 μM, 48 hours, 0 μM 1.270): 1.133 | degree of growth of cell (A450 - A650) ([1]; 5 μM, 24 hours, 0 μM 0.846): 0.621 | degree of growth of cell (A450 - A650) ([1]; 5 μM, 48 hours, 0 μM 1.270): 0.942 | production of apoptic bodies ([1]; 10 μM): production of apoptic bodies was noted | degree of growth of cell (A450 - A650) ([1]; 10 μM, 24 hours, 0 μM 0.846): 0.420 | degree of growth of cell (A450 - A650) ([1]; 10 μM, 48 hours, 0 μM 1.270): 0.486 | degree of growth of cell (A450 - A650) ([1]; 20 μM, 24 hours, 0 μM 0.846): 0.238 | degree of growth of cell (A450 - A650) ([1]; 20 μM, 48 hours, 0 μM 1.270): 0.185 | degree of growth of cell (A450 - A650) ([1]; 30 μM, 24 hours, 0 μM 0.846): 0.241 | degree of growth of cell (A450 - A650) ([1]; 30 μM, 48 hours, 0 μM 1.270): 0.196 | apoptosis-inducing and growth-inhibiting action to synovial cells (in words) ([1]; Example 11): apoptosis-inducing action and growth-inhibiting action to synovial cells | minimal effective concentration ([1]; Homo sapiens, Fibroblast, 24 and 48 hours, vs control, read-out: concentration at which cell growth was inhibited): ≥ 5 µM | minimal effective dose [2]: ≥ 100 mg/kg
